This is an account of results in PubChem BioAssay (NCI).

Molecules are shown by their SMILES.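 Step 1: Grow cells in 96-well plates. Step 2: Expose to compound for 48 hours at 5 concentrations. Step 3: Interpolate endpoints linearly; if unreached, use highest concentration. Abbreviation: GI50, concentration required for 50% inhibition of growth. The concentration for full growth arrest is given as TGI.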 Bounds are passed on as bounds.

Among the test systems are MDA-MB-435; SW-620 colon; BT-549 breast; HCT-15 colon; UACC-257 melanoma; SN12C renal; MALME-3M melanoma; SF-295 CNS; SR leukemia; A498 renal.
Experiment in all cases: DTP human tumour cell line panel, 48 h

In the case of `Oc1c(CN2CCC(N3CCCCC3)CC2)cc(Cc2cc(CN3CCC(N4CCCCC4)CC3)c(O)c3ncccc23)c2cccnc12`, the GI50 with MDA-MB-435 was 1.77 µM; in the test on SW-620 colon, 0.726 µM; in the test with BT-549 breast, 1.48 µM; with HCT-15 colon, 0.797 µM; in the test on UACC-257 melanoma it was 2.08 µM; with SN12C renal it was 1.62 µM. The GI50 is 1.79 µM in the test with MALME-3M melanoma, 1.64 µM with SF-295 CNS, 0.652 µM in the test with SR leukemia and 5.02 µM in the test on A498 renal. The concentration for total growth inhibition (TGI) in the test on MDA-MB-435 amounted to 6.41 µM; in the test with SW-620 colon it was 15.1 µM; in the test with BT-549 breast, 5.13 µM; in the test with HCT-15 colon, 14.6 µM; with UACC-257 melanoma, 4.31 µM; with SN12C renal it was 16 µM. Moreover, the total growth inhibition concentration (TGI) in the test on MALME-3M melanoma turned out to be 4.26 µM; with SF-295 CNS, 3.58 µM; in the test on SR leukemia it was 3.74 µM; in the test with A498 renal, 18 µM.

For the molecule `O=C1c2cc(Cl)ccc2S(=O)(=O)c2c(NCCCNCCO)nc3ccccc3c21`, the GI50 with MDA-MB-435 is 1.5 µM; with SW-620 colon, 0.444 µM; with BT-549 breast, 3.99 µM; with HCT-15 colon it was 0.926 µM; in the test on UACC-257 melanoma it was 1.55 µM; with SN12C renal, 1.25 µM. Moreover, the GI50 in the test with MALME-3M melanoma was 1.19 µM; with SF-295 CNS it was 3.26 µM; with SR leukemia, 0.466 µM; in the test with A498 renal it was 2.95 µM. Also, the total growth inhibition concentration (TGI) in the test on MDA-MB-435 worked out at 3.13 µM; with SW-620 colon, 1.71 µM; in the test with BT-549 breast, 14.6 µM; with HCT-15 colon it was 2.35 µM; in the test on UACC-257 melanoma, 3.42 µM; in the test on SN12C renal, 2.51 µM. Also, the TGI in the test on MALME-3M melanoma came out at 2.56 µM; with SF-295 CNS, 12.4 µM; in the test with SR leukemia, 5.11 µM; in the test with A498 renal, 9.34 µM.

As for `Oc1ccc(CN2CCC(N3CCCCC3)CC2)c2cccnc12`, the GI50 was 4.63 µM in the test on MDA-MB-435; 17 µM in the test on SW-620 colon; 11.5 µM with BT-549 breast; 5.83 µM in the test with HCT-15 colon; 27.6 µM with UACC-257 melanoma; 8.18 µM in the test on SN12C renal. Also, the GI50 in the test with MALME-3M melanoma is 24.4 µM; with SF-295 CNS, 68.3 µM; in the test on SR leukemia, 16.7 µM; in the test with A498 renal, more than 100 µM. Also, the TGI with MDA-MB-435 is more than 100 µM; in the test with SW-620 colon, more than 100 µM; in the test with BT-549 breast it was more than 100 µM; in the test with HCT-15 colon, more than 100 µM; with UACC-257 melanoma it was 99.3 µM; with SN12C renal, more than 100 µM. The TGI with MALME-3M melanoma, in the test on SF-295 CNS, in the test on SR leukemia and with A498 renal was more than 100 µM each time.
